The source of these data is patent US10071983B2, “Activatable fluorogenic compounds and uses thereof as near infrared probes” (Ramot at Tel-Aviv University Ltd., priority 2011, dated 2018).

“And” between values parts separate entries of the source, which are not always exact repeats. Equal entries are not always repeated.

Series [1] can be described thus: NIR fluorescence emission spectrum of dye compounds. Format: physicochemical. The settings on record: PBS 7.4 [50 μM], excitation 570 nm, cutting filter >690 nm.
Series [2] can be described thus: Fluorescence quantum yield calculation against a reference dye. The settings on record: PBS 7.4. It counts as physicochemical. How it is done: Cresyl-violet-perchlorate (as presented hereinbelow) was chosen as a reference compound for the determination of QCy7 quantum yield.
(§1) FIG. 5 presents the data obtained for fluorescence intensity vs. wavelength of standard sample (Cresyl violet; FIG. 5A), and test sample (QCy7; FIG. 5B), at the indicated concentrations. The measurements were performed in a 1 cm cuvette using Fluoromax-3 fluorometer; at an excitation wavelength of 560 nm. Cresyl violet was dissolved in methanol and Compound 1 in PBS 7.4 (just generating QCy7).
Conversion to the absolute quantum yield is achieved through the following equation: ΦX=ΦST(GradX/GradST)(η^2X/η^2ST) where the subscripts ST and X denote standard and test respectively, Φ is the fluorescence quantum yield, Grad the gradient from the plot of integrated fluorescence intensity vs. absorbance (see, FIG. 6), and η the refractive index of the solvents. ΦCresyl-violet=0.55 [Stefan et al. ([…]) J. Phys. Chem. 86, 1738-1742].
QCy7 was chosen as a reference compound for the determination of Sulfo-QCy7 quantum yield.
(§2) FIG. 8 presents the data obtained for fluorescence intensity vs. wavelength of standard sample (QCy7; FIG. 8A), and test sample (Sulfo-QCy7, generated from Compound 9; FIG. 8B), at the indicated concentrations. The measurements were performed at a 96-wells plate reader using Fluoromax-3 fluorometer; at an excitation wavelength of 560 nm. Both samples were dissolved in PBS 7.4.
The absolute quantum yield was calculated as described hereinabove and found to be: […]

Series [3] is described as follows: NIR fluorescence emission spectrum of dye compounds. Format: physicochemical. The note with it: for fluorescence emission peak in the NIR region: PBS 7.4; for λmax: Table 1, λmax (fluorescence emission).
Excerpt: (§3) Compound 1 (which generates the dye compound QCy7 deprotonation) was obtained as an orange crystalline powder. FIGS. 4A and 4B present the UV-Vis spectrum of Compound 1 (FIG. 4A), compared to that of the acetate Compound 3 (FIG. 4B). […] The obtained large stokes shift between the excitation and the emission wavelengths of about 150 nm is a desirable feature for fluorescence probes, which assists in increasing the signal-to-noise ratio.
as §1, §2

Series [4] can be described thus: Extinction coefficient calculation (absorbance vs concentration). It counts as physicochemical. An excerpt: FIG. 7 presents linear plots of QCy7 as measured at 1 cm cuvette, at the indicated concentrations in PBS 7.4, at the maximum wavelength of QCy7 (560 nm). εQCy7=26848[M^−1cm^−1]
FIG. 10 presents linear plots of Sulfo-QCy7 as measured at 1 cm cuvette, at the indicated concentrations in PBS 7.4, at the maximum wavelength of Sulfo-QCy7 (590 nm). εSulfo-QCy7=52235[M^−1cm^−1]

Series [5] concerns HeLa cells. Kind of series: Cell permeability, confocal imaging of HeLa cells. It counts as cell-based. As to the method:
HeLa cells were incubated overnight with Compound 9 in PBS 7.4, and the cells was thereafter imaged by confocal microscope.
A colocalization assay of Compound 25 was conducted with the lysosome marker lysosensor. Sample was excited with a 561 nm laser line and fluorescence acquired from 570 nm to 800 nm.

The nature of series [6]: UV-Vis absorption spectrum of dye compounds. Format: physicochemical.
Excerpt: as §3
Compound 14 is composed from a phenol latent donor and two different acceptors; a picolinium moiety and an indolium moiety (see, Scheme 3). Deprotonation of the phenolic dye leads to formation of new donor-acceptor pair fluorochrome.
Compound 18 is composed of a phenol latent donor and two identical acceptors based on a picolinium moiety (see, Scheme 4). Deprotonation of the phenolic form leads to formation of new donor-acceptor pair fluorochrome.
Compound 25 is composed of a phenol latent donor and three acceptors; two picolinium moieties and one indolium moiety (see, Scheme 5). Deprotonation of the phenolic compound leads to formation of three resonance donor-two-acceptor structures of new fluorochrome.
The chemical 2D structures and spectroscopic data obtained for exemplary dye molecules according to embodiments of the present invention are presented in Table 1.

Series [7] is described as follows: Aqueous stability in PBS 7.4 at 37° C., NIR emission over 72 hours. The note with it: PBS 7.4 [25 μM]. It counts as physicochemical. How it is done: The aqueous stability of the cyanine-like dye compound presented herein was tested and compared to that of the cyanine molecule Cy7.
All tested compounds were incubated in PBS 7.4 [25 μM], at 37° C., and their NIR fluorescent emission was monitored over 72 hours. FIG. 15 presents the normalized intensity of NIR fluorescent emission of dyes generated from Compound 9 (green circles; Sulfo-QCy7), Compound 14 (blue diamonds), Compound 18 (red squares), Compound 25 (orange triangles) and Compound 1 (blank navy squares; QCy7) as a function of incubation time.

Series [8] concerns HeLa cells. Kind of series: Two-photon excitation with NIR laser in HeLa cells. Format: cell-based. The settings on record: incubated with HeLa cells and PBS 7.4. How it is done:
Fluorescent dyes, which absorb at wavelengths of 350-550 nm, can be excited in NIR region with a two-photon laser.
Compound 25 was incubated with HeLa cells and PBS 7.4.

A short description of series [9]: pKa measurement by UV-Vis absorbance as a function of pH. Format: physicochemical. The note with it: buffers at the indicated pH; 50 μM in buffers, phenol form. As to the method: The pKa values of exemplary compounds according to some embodiments of the present invention, Compounds 14, 18 and 25, was measured by monitoring their UV-Vis absorbance as a function of the environment pH. The tested compounds, at a concentration of 50 μM were dissolved in the respective buffers at the indicated pH and their absorbance was measured.

For series [10] the following is noted: in methanol; Stefan et al. 1992; cited from earlier work.

Take `CC1(C)C(/C=C/c2ccc(O)c(/C=C/C3=[N+](CCCS(=O)(=O)[O-])c4ccccc4C3(C)C)c2)=[N+](CCCS(=O)(=O)[O-])c2ccccc21` [Compound 9]: the “appearance under NIR imaging camera” value in [1] is on record as “exhibits well-observed NIR fluorescence”. For the same compound, the quantum yield in series [2] is 16%. In [3], the “fluorescence emission peak in the NIR region” value is listed as 720 nm and the λmax is listed as 710 nm. Further, the “extinction coefficient ε” value in series [4] (PBS 7.4, 1 cm cuvette, at maximum wavelength (QCy7 560 nm, Sulfo-QCy7 590 nm)) is 52235 M⁻¹ cm⁻¹. Further, the extinction coefficient in series [4] (rounded value) is on record as 52,000 mol^−1 cm^−1. The “fluorescence inside vs outside the cells” value in series [5] (HeLa cells incubated overnight, PBS 7.4) is “higher fluorescence inside the cells”.

In the case of `C[n+]1ccc(/C=C/c2cc(/C=C/C3=[N+](CCCS(=O)(=O)O)c4ccccc4C3(C)C)cc(/C=C/c3cc[n+](C)cc3)c2O)cc1` [Compound 25], in series [6] (PBS 7.4), the “UV-Vis absorption peak maximum” value is 330 nm and 550 nm. The λmax in [6] (Table 1, first λmax column (absorption peaks)) is 550 nm. The quantum yield in series [2] was 16%. Moreover, the “aqueous stability compared with Cy7” value in series [7] is “increase aqueous stability than that of Cy7”. Further, in [8], the “two-photon excitation spectrum wavelengths” value was 800-1000 nm. Moreover, in series [3], the “fluorescence emission peak in the NIR region” value stood at 680 nm and the λmax was 650 nm. The compound also displayed a pKa in series [9] of 5.4. In [5] (HeLa cells, excitation 561 nm, 570-800 nm), the “cellular localization (colocalization with lysosensor)” value is on record as “accumulation of the dye in the lisosomal vesicles indicates cell-penetration through endocytosis mechanism”. Also, in [5] (overnight incubation with cells), the “chemical stability in cell-medium” value is “chemical stability after overnight in cell-medium”. Further, the “NIR fluorescence under acidic condition of the lysosome” value in series [5] (pH of about 5) is reported as “emitted NIR fluorescence even under the acidic condition of the lysosome”.

For `N=c1cc2oc3cc(N)ccc3nc-2c2ccccc12.[O-][Cl+3]([O-])([O-])O` [Cresyl-violet, Cresyl-violet-perchlorate], the “fluorescence quantum yield of reference” value in series [10] is 0.55.

By pKa is commonly meant the pH at which an ionisable group is half protonated. The low end stands for a group that gives up its proton readily, the high end for a group that holds its proton tightly.
